Tested on: subjects with a chronic motor complete cervical injury
Experiment: Maximal handgrip strength (handgrip force measurement device) in tetraplegic subjects during pcEmc with oral buspirone
Assay type: in vivo, human
Method: Six subjects with chronic (18-36 months) spinal cord injury (SCI, traumatic cervical injury, ASIA B with no motor strength below the injury) were tested to determine if hand function can be improved by neuromodulating the cervical spinal cord. All subjects initially had minimal hand strength, a condition reflecting the majority of cervical SCI patients. Our experimental approach began with 6 weeks of baseline testing (Phase 1), followed by three 2-week treatment periods (Phases 2-4), and then by a period of approximately three months without any treatment at the end of which there was a final 2-week testing period (Phase 5). pcEmc at the C5 spinal segment (Phase 2) increased hand strength in 4/6 subjects compared to baseline Phase 1 (FIG. 1, panels A-G). […]
Voluntary motor control data were assessed using a handgrip force measurement device. […] The number of completed contraction-release sequences across the lines was determined. […] The percentage of data points that fell inside a circular window at a sampling of 15 Hz was determined. […]
The transcutaneous stimulation device is non-invasive. […] Varying combinations of these stimulation parameters were systematically assessed to obtain optimum facilitation of voluntary hand contraction by identification of the relative activation levels of the motor pools studied (data not shown). […]

With `O=C1CC2(CCCC2)CC(=O)N1CCCCN1CCN(c2ncccn2)CC1` [buspirone] the “Mean hand strength increase” value (after pcEmc plus fEmc (buspirone) treatment, 6 subjects, 7.5 mg buspirone twice daily for 2 weeks, oral) was “greater than 300%” and the “Subjects with increased hand strength compared to Phase 1 and 2” value (during buspirone treatment (Phase 3) with pcEmc at C5, number of subjects out of 6) was 4/6.
